Results reported in ChEMBL document CHEMBL1149471, “Pharmacophore-based virtual screening: the discovery of novel methionyl-tRNA synthetase inhibitors” (Bioorg Med Chem Lett, 2006).

Biological target: Methionine--tRNA ligase (Escherichia coli K-12, UniProt P00959)
Assay: Inhibition of Escherichia coli MetRS assessed as decrease in [35S]methionyl tRNAMet production by SPA

Sequence of Methionine--tRNA ligase (P00959 whole entry): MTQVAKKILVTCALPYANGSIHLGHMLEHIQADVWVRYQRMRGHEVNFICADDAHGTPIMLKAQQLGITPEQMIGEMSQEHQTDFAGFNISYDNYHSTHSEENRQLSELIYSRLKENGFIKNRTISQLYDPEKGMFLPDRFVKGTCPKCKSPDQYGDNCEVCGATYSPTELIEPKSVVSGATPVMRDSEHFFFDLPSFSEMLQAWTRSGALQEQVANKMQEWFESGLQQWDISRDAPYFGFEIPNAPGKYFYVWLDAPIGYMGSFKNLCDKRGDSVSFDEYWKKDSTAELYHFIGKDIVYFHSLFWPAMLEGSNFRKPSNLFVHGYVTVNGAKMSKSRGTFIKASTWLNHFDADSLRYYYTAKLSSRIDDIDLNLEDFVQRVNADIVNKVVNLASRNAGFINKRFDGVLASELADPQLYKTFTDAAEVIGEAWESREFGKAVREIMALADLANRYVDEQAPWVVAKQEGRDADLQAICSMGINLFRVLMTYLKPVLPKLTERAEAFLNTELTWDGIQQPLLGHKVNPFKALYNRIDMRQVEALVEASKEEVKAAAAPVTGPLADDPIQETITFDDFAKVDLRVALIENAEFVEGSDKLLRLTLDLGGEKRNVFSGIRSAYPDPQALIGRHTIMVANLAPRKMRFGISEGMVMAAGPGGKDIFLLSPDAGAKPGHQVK

| SMILES | IC50 [µM] |
| --- | --- |
| O=C(CC(=O)Nc1ccccc1C(=O)O)Nc1nc2ccc(Br)cc2s1 | 30.5 |
| O=C(CNC(=O)c1cccs1)N/N=C/c1ccc(C(=O)O)cc1 | 0.237 |
| NS(=O)(=O)c1ccc(CCNC(=S)Nc2cccc(C(F)(F)F)c2)cc1 | 47.7 |
| O=C(CNC(=O)c1cccc(Br)c1)N/N=C/c1ccc(C(=O)O)cc1 | 22.8 |
